Results taken from patent US20240124465A1, “MOLECULES AND METHODS RELATED TO TREATMENT OF DISORDERS ASSOCIATED WITH JAK-2 SIGNALING DYSFUNCTION” (ST. JUDE CHILDREN'S RESEARCH HOSPITAL, priority 2020, published 2024).

Tests used:
Assay type in all cases: cell-based
GSPT1 = target: T1, GSPT1 (Homo sapiens, UniProt P15170); assay: Western blot assay, GSPT1 neosubstrate degradation; conditions: MHH-CALL-4 cells, vehicle control = 100%; for remaining activity at 0.1 µM: MHHCALL4, 100 nM, 24 h
T1 construct: endogenous in cells; host or cells: MHH-CALL-4
T1 sequence (P15170 whole entry): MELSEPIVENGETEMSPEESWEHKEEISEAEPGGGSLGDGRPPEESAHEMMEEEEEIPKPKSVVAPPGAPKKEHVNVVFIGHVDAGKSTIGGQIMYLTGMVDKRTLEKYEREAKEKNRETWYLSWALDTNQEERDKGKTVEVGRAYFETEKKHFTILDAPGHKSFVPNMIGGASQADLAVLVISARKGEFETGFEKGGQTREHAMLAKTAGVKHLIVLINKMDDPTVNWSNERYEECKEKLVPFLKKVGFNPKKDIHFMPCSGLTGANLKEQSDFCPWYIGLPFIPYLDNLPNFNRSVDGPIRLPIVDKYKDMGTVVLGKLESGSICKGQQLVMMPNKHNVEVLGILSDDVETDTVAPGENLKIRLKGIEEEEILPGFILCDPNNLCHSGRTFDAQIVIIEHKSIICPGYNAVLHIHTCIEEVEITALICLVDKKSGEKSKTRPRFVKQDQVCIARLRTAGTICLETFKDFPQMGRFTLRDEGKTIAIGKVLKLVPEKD
Procedure: (§1) Western blot assay: MHH-CALL-4 Cells were washed twice with ice-cold PBS and lysed in RIPA lysis buffer (Sigma) freshly supplemented with Halt™ Protease Inhibitor Cocktail (ThermoFisher) for 15 minutes on ice. The cell pellet was removed by centrifugation at 13,000 g at 4° C. for 15 minutes. Protein concentration was measured by BCA assay (Thermo Fisher Scientific). Proteins were denatured in NuPAGE LDS 4× sample buffer supplemented with reducing agents (Invitrogen). Typically, 10-20 μg of total protein was loaded per lane on a 4%-12% NUPAGE Bis-Tris gradient gel (Invitrogen) and analyzed by standard immunoblotting and imaged using Li—COR Odyssey CLx (LI-COR Biotechnology, Lincoln, NE). To access the protein degradation, the signal of target protein was normalized by the signal of ACBT and the signal of vehicle control was set as 100%. Primary antibodies used were: JAK1 (Cell Signaling #3332S), JAK2 (#3230S), JAK3 (#8827S), TYK2 (#9312S), GSPT1 (#14980S), CRBN (#71810S), IKZF1 (Santa Cruz Biotechnology, SC-398265) and ACBT (Santa Cruz Biotechnology, SC-47778).

JAK2 = assay: Western blot assay, JAK2 protein degradation; conditions: MHH-CALL-4 cells, vehicle control = 100%
Procedure: as §1

MHH-CALL-4 cells = assay: Cytotoxicity assay (resazurin, 72 hours); set-up: AUC: unit not given beside the values; conditions: for EC50: MHHCALL4, resazurin; for AUC: area under the dose-response curve
Procedure: Cytotoxicity assay: MHH-CALL-4 cells were maintained in RPMI1640 medium (Invitrogen) supplemented with 10% FBS (Hyclone), Penicillin/Streptomycin (100 units/mL) and Glutamine (100 μM). 2×10^5 cells were seeded in 100 μl medium/well in 96 well assay plates (Corning 3603). Assays were performed in triplicate; compounds to be screened were added to assay plates from DMSO stock solutions by pin transfer using 50SS pins (V&P Scientific). The assay plates incubated at 37° C. in 5% CO2 for 72 hours. Cells were then incubated for four hours with resazurin (Sigma) solution and read on a Synergy HT plate reader (Biotek, Winooski, VT). High-throughput assay data was analyzed using our in-house Robust Interpretation of Screening Experiments (RISE) application written in Pipeline Pilot (Biovia, v. 17.2.0) and the R program (R Core Team, 2013). All the AUC (area under the dose-response curve) per compound calculated from its dose response curve by RISE protocol. Selected data were plotted and analyzed by GraphPad Prism software v7 using non-linear regression curve fitting.

JAK3 = target: T2, JAK3 (Homo sapiens, UniProt P52333); assay: Western blot assay, JAK3 protein degradation; conditions: MHHCALL4; 100 nM, 24 h; MHH-CALL-4 cells; vehicle control = 100%; read-out: Target Protein Degradation (% remaining at 100 nM, 24 h) JAK3
T2 construct: endogenous in cells; host or cells: MHH-CALL-4
T2 sequence (P52333 1-1124): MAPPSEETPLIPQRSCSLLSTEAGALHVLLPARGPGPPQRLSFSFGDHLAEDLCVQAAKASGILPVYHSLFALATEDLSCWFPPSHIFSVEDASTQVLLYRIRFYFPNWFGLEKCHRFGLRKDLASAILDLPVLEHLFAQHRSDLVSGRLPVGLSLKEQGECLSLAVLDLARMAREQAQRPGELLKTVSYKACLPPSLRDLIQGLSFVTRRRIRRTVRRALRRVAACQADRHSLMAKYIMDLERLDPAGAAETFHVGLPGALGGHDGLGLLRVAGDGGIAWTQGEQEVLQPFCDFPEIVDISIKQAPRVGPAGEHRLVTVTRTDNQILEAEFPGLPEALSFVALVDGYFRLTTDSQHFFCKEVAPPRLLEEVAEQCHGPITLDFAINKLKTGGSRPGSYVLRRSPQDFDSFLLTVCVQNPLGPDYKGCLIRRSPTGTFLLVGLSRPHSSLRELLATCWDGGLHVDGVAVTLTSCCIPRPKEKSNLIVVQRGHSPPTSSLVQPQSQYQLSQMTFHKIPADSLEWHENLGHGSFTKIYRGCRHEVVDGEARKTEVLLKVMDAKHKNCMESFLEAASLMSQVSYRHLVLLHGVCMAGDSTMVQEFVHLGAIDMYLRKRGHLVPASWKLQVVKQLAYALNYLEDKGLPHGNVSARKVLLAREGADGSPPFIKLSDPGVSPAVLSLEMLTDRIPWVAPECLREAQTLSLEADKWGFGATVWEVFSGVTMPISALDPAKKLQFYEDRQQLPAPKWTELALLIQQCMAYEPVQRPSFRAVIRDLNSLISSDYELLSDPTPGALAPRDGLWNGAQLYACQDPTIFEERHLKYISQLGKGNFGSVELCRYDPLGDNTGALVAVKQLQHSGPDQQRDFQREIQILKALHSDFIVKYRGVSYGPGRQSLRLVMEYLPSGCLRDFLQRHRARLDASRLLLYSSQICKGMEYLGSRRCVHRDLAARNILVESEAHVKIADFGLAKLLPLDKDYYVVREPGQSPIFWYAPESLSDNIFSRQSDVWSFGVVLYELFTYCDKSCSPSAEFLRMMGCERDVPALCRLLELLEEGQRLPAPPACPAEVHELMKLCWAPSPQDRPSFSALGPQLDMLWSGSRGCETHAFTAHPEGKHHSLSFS
Procedure: as §1

Neosubstrate Degradation (% remaining at 100 nM, 24 h) GSPT1 (GSPT1) | remaining activity at 0.1 µM (GSPT1) [%] | remaining activity at 0.1 µM (JAK3) [%] | Compound | Target Protein Degradation (% remaining at 100 nM, 24 h) JAK2 (JAK2) | EC50 (MHH-CALL-4 cells) [nM] | AUC (MHH-CALL-4 cells)
None | – | – | CCS(=O)(=O)N1CC(CC#N)(n2cc(-c3nc(Nc4ccc(C(=O)N5CCN(c6ccc(C7CCC(=O)NC7=O)cc6)CC5)cc4)nc4[nH]ccc34)cn2)C1 (stereo not drawn) [Compound 2] | None | 1 | 167
– | – | – | CCS(=O)(=O)N1CC(CC#N)(n2cc(-c3nc(Nc4ccc(C(=O)NCCOCCOc5cccc(C6CCC(=O)NC6=O)c5)cc4)nc4[nH]ccc34)cn2)C1 (stereo not drawn) [Compound 9] | – | 873 | 132
– | – | – | CCS(=O)(=O)N1CC(CC#N)(n2cc(-c3nc(Nc4ccc(C(=O)NCCOCCOCCOc5ccc(C6CCC(=O)NC6=O)cc5)cc4)nc4[nH]ccc34)cn2)C1 (stereo not drawn) [Compound 12] | – | > 5000 | 116
– | – | – | CCS(=O)(=O)N1CC(CC#N)(n2cc(-c3nc(Nc4ccc(C(=O)NCCCCNc5ccc(C6CCC(=O)NC6=O)cc5)cc4)nc4[nH]ccc34)cn2)C1 (stereo not drawn) [Compound 13] | – | > 5000 | 93
– | 78 | – | CCS(=O)(=O)N1CC(CC#N)(n2cc(-c3nc(Nc4ccc(C(=O)NCCCCNC(=O)COc5ccc(C6CCC(=O)NC6=O)cc5)cc4)nc4[nH]ccc34)cn2)C1 (stereo not drawn) [Compound 15] | 29 % remaining | > 5500 | 156
– | – | – | CCS(=O)(=O)N1CC(CC#N)(n2cc(-c3nc(Nc4ccc(C(=O)NCCCCCNC(=O)COc5ccc(C6CCC(=O)NC6=O)cc5)cc4)nc4[nH]ccc34)cn2)C1 (stereo not drawn) [Compound 16] | – | > 5700 | 136
– | – | – | CCS(=O)(=O)C1CC(CC#N)(n2cc(-c3nc(Nc4ccc(C(=O)N5CCN(c6ccc7c(c6)C(=O)N(C6CCC(=O)NC6=O)C7=O)CC5)cc4)nc4[nH]ccc34)cn2)C1 (stereo not drawn) [Compound 21] | 53 % remaining | 13.9 | 118
– | 0 | – | CCCn1cc(-c2nc(Nc3ccc(C(=O)NCCN4CCN(c5cccc6c5C(=O)N(C5CCC(=O)NC5=O)C6=O)CC4)cc3)nc3[nH]ccc23)cn1 (stereo not drawn) [Compound 24] | 93 % remaining | 83.6 | 208
Medium | – | – | CCCn1cc(-c2nc(Nc3ccc(C(=O)NCCCN4CCN(c5cccc6c5C(=O)C(C5CCC(=O)NC5=O)C6=O)CC4)cc3)nc3[nH]ccc23)cn1 (stereo not drawn) [Compound 25] | None | 169 | 250
Medium | – | – | CCCn1cc(-c2nc(Nc3ccc(C(=O)N4CCN(c5cccc6c5C(=O)N(C5CCC(=O)NC5=O)C6=O)CC4)cc3)nc3[nH]ccc23)cn1 (stereo not drawn) [Compound 26] | None | 297 | 217
– | 116 | 51 | CCS(=O)(=O)N1CC(CC#N)(n2cc(-c3nc(Nc4ccc(C(=O)NCCN5CCC(c6ccc7c(c6)CN(C6CCC(=O)NC6=O)C7=O)CC5)cc4)nc4[nH]ccc34)cn2)C1 (stereo not drawn) [Compound 35, 4-((4-(1-(3-(cyanomethyl)-1-(ethylsulfonyl)azetidin-3-yl)-1H-pyrazol-4-yl)-7H-pyrrolo[2,3-d]pyrimidin-2-yl)amino)-N-(2-(4-(2-(2,6-dioxopiperidin-3-yl)-1-oxoisoindolin-5-yl)piperidin-1-yl)ethyl)benzamide] | 33 % remaining | 22 | 223
– | – | – | CCS(=O)(=O)N1CC(CC#N)(n2cc(-c3nc(Nc4ccc(C(=O)NCCCN5CC6CC5CN6c5ccc(C6CCC(=O)NC6=O)cc5)cc4)nc4[nH]ccc34)cn2)C1 (stereo not drawn) [Compound 48, 4-((4-(1-(3-(cyanomethyl)-1-(ethylsulfonyl)azetidin-3-yl)-1H-pyrazol-4-yl)-7H-pyrrolo[2,3-d]pyrimidin-2-yl)amino)-N-(3-(5-(4-(2,6-dioxopiperidin-3-yl)phenyl)-2,5-diazabicyclo[2.2.1]heptan-2-yl)propyl)benzamide] | 76 % remaining | 27.3 | 80
– | – | – | CCS(=O)(=O)N1CC(CC#N)(n2cc(-c3nc(Nc4ccc(C(=O)NCCCN5CCC6(CC5)CCN(c5ccc(C7CCC(=O)NC7=O)cc5)CC6)cc4)nc4[nH]ccc34)cn2)C1 (stereo not drawn) [Compound 51] | 67 % remaining | 226 | 105
– | 102 | – | CCS(=O)(=O)N1CC(CC#N)(n2cc(-c3nc(Nc4ccc(C(=O)N5CC6(C5)CN(c5ccc(C7CCC(=O)NC7=O)cc5)C6)cc4)nc4[nH]ccc34)cn2)C1 (stereo not drawn) [Compound 53, 2-(3-(4-(2-((4-(6-(4-(2,6-dioxopiperidin-3-yl)phenyl)-2,6-diazaspiro[3.3]heptane-2-carbonyl)phenyl)amino)-7H-pyrrolo[2,3-d]pyrimidin-4-yl)-1H-pyrazol-1-yl)-1-(ethylsulfonyl)azetidin-3-yl)acetonitrile] | 36 % remaining | 1.7 | 142
– | 125 | – | CCS(=O)(=O)N1CC(CC#N)(n2cc(-c3nc(Nc4ccc(C(=O)NCCCN5CC6CCC5CN6c5ccc(C6CCC(=O)NC6=O)cc5)cc4)nc4[nH]ccc34)cn2)C1 (stereo not drawn) [Compound 54, 4-((4-(1-(3-(cyanomethyl)-1-(ethylsulfonyl)azetidin-3-yl)-1H-pyrazol-4-yl)-7H-pyrrolo[2,3-d]pyrimidin-2-yl)amino)-N-(3-(5-(4-(2,6-dioxopiperidin-3-yl)phenyl)-2,5-diazabicyclo[2.2.2]octan-2-yl)propyl)benzamide] | 62 % remaining | 6.3 | 67
– | 102 | – | CCS(=O)(=O)N1CC(CC#N)(n2cc(-c3nc(Nc4ccc(C(=O)NCCCN5CCC6(CCN(c7ccc(C8CCC(=O)NC8=O)cc7)CC6)C5)cc4)nc4[nH]ccc34)cn2)C1 (stereo not drawn) [Compound 56, 4-((4-(1-(3-(cyanomethyl)-1-(ethylsulfonyl)azetidin-3-yl)-1H-pyrazol-4-yl)-7H-pyrrolo[2,3-d]pyrimidin-2-yl)amino)-N-(3-(8-(4-(2,6-dioxopiperidin-3-yl)phenyl)-2,8-diazaspiro[4.5]decan-2-yl)propyl)benzamide] | 58 % remaining | 2650 | 172
